Where two headings read alike, the source gives them in different places. Marks after values point to notes of the source that are not given here.
Assays:
[1] = Tissue distribution study in rabbits after oral Panax notoginseng extract with or without Borneol; type: in vivo, New Zealand rabbits; settings: New Zealand, rabbit; for Kp at 1 h: oral, Borneol combined with Panax notoginseng; for concentration at 0.5 h / concentration at 1 h / concentration at 3 h: po; for concentration at 3 h: 3 mL·kg^−1, 3.0 h
Procedure: (§1) Frozen plasma and tissue samples were thawed in a water bath at 37°C and were then vortexed followed by centrifuging at 5000 r·min^−1 for 5 min. An aliquot of 1.0 mL of the supernatant from each sample was loaded onto C18 Bond Elute Solid phase extraction (SPE) cartridges (1000 mg, 1 cc reservoir, Varian, Harbor City, CA, USA) pretreated with 2.0 mL hexane, isopropanol, methanol, and water, sequentially. The SPE cartridges were then washed with 1.0 mL water, 20% methanol/water solution, 40% methanol/water solution, and 60% methanol/water solution, sequentially. Finally, analytes were eluted twice with 1.0 mL of 70% methanol/water solution. The eluant was evaporated to dryness under nitrogen. The residues were then reconstituted in 1.0 mL mobile phase. An aliquot of 10 μL was injected into the LC-MS system.
One group of rabbits (n = 18) was orally administered a dose of 3.0 mL·kg^−1 Panax notoginseng extract, while another group of rabbits (n = 18) was orally given 3.0 mL·kg^−1 Panax notoginseng extract combined with Borneol. At 0.5, 1, and 3 h after administration, blood samples were collected from the central ear artery of six rabbits from each group, and the heart, liver, lung, kidney, and brain were immediately removed after animals were sacrificed by decapitation. An accurately weighed amount of tissue (1 g) was collected to be rinsed, dried, minced, and homogenized (400 r·min^−1) in normal saline (1.5 mL). All of the samples were stored at −70°C and were processed prior to analysis with the proposed method as described in Section 2.6.

[2] = Pharmacokinetics study in rabbits after oral Panax notoginseng extract with or without Borneol (plasma, SPE-HPLC-MS); type: in vivo, New Zealand rabbits; settings: for Cmax / Tmax / CL/F / half-life / AUC(0-inf) / AUC(0-t): New Zealand, rabbit, plasma; for CL/F: read-out: CL/F; for half-life: read-out: t 1/2β; for AUC(0-inf) / AUC(0-t): po
Procedure: Liquid chromatography was carried out on an Agilent 1100 HPLC system with an auto sampler, a quaternary pump and a vacuum degasser (Waldoboro, Frankfurt, Germany). Operations were controlled by Agilent Chemstation 4.2 software (Littleforts, Philadelphia, USA). Separations were achieved on a reversed-phase HPLC column (Zorbax SB-C18 150 × 2.1 mm, 5.0 μm particle size). A solution of acetonitrile and water (V : V, 20 : 80) with 0.1% (V : V) ammonium formate was used as the mobile phase. The flow rate was set at 0.3 mL·min^−1 and the column temperature was 25°C. Under these conditions, NGR1, GRg1, and GRe in plasma samples were separated efficiently without any interferences.
MS^n detection was performed on an Agilent SL trap MS system (Waldoboro, Frankfurt, Germany). The ion source-dependent (electrospray ionization) conditions were the same for all analyses with a spraying voltage of −4500 V in the negative ion mode. The pressure of the nebulizing gas (nitrogen) was set at 35 p.s.i. The flow rate of the drying gas (nitrogen) was set at 7.0 L·min^−1 with the temperature of 325°C. The collision gas (He) for the MS^n mode at trap was set at flow of 4 (instrument unit). The voltage of the capillary was set at 4000 V, and its end plate offset was −500 V. Scan range was from 500 to 1500 m/z.
as §1
Eighteen rabbits were randomly divided into three groups of 6 subjects and were orally given 3.0 mL·kg^−1 normal saline, 3.0 mL·kg^−1 Panax notoginseng extract, and 3.0 mL·kg^−1 Panax notoginseng extract combined with Borneol, respectively. Plasma samples were collected in heparinized tubes from the central ear artery at 0.0, 5.0, 10.0, 20.0, 30.0, 45.0, 60.0, 75.0, 90.0, 120.0, 180.0, 300.0 and 480.0 min after dose. After each sampling, the same volume of 0.9% saline solution was injected from the ear vein to compensate the loss of blood. The plasma obtained was frozen at −70°C for storage and was processed prior to analysis with the proposed method as described in Section 2.6.
Statistical analysis of the biological data was performed using the Student's t-test. The drug analysis system 2.0 (DAS 2.0, T.C.M., Shanghai, China) was used to calculate the pharmacokinetic parameters, such as the area under curve (AUC), the maximum plasma concentration (C max), the time needed to reach the maximum plasma concentration (t max) and the half-life of absorption, and distribution and elimination (t 1/2Ka, t 1/2α, t 1/2β).

[3] = oral 3.0 mL·kg^−1 Panax notoginseng extract
[4] = oral 3.0 mL·kg^−1 Panax notoginseng extract combined with Borneol

Compound: CC(C)=CCC[C@](C)(O[C@@H]1O[C@H](CO)[C@@H](O)[C@H](O)[C@H]1O)[C@H]1CC[C@]2(C)[C@@H]1[C@H](O)C[C@@H]1[C@@]3(C)CC[C@H](O)C(C)(C)[C@@H]3[C@@H](O[C@@H]3O[C@H](CO)[C@@H](O)[C@H](O)[C@H]3O[C@@H]3O[C@@H](C)[C@H](O)[C@@H](O)[C@H]3O)C[C@]12C [GRe, ginsenoside Re]
- Kp at 1 h ([1]; brain, peak levels at 1.0 h, read-out: level in brain, fold higher than the plasma concentrations): 1.14
- concentration at 0.5 h ([1]; brain, 3 mL·kg^−1, 0.5 h, oral Panax notoginseng with Borneol, read-out: Concentration in brain): 1800 ± 420 ng/g
- concentration at 0.5 h ([1]; brain, 3 mL·kg^−1, 0.5 h, oral Panax notoginseng, read-out: Concentration in brain): 1050 ± 420 ng/g
- concentration at 1 h ([1]; brain, 3 mL·kg^−1, 1.0 h, oral Panax notoginseng, read-out: Concentration in brain): 1210 ± 280 ng/g
- concentration at 3 h ([1]; brain, oral Panax notoginseng with Borneol, read-out: Concentration in brain): 1650 ± 230 ng/g
- concentration at 3 h ([1]; brain, oral Panax notoginseng, read-out: Concentration in brain): 630 ± 120 ng/g
- concentration at 1 h ([1]; brain, 1.0 h, oral Panax notoginseng with Borneol, read-out: Concentration in brain): 2760 ± 630 ng/g
- Kp at 1 h ([1]; heart, peak levels at 1.0 h, read-out: level in heart, fold higher than the plasma concentrations): 1.35
- concentration at 0.5 h ([1]; heart, 3 mL·kg^−1, 0.5 h, oral Panax notoginseng with Borneol, read-out: Concentration in heart): 2810 ± 740 ng/g
- concentration at 0.5 h ([1]; heart, 3 mL·kg^−1, 0.5 h, oral Panax notoginseng, read-out: Concentration in heart): 1650 ± 530 ng/g
- concentration at 1 h ([1]; heart, 3 mL·kg^−1, 1.0 h, oral Panax notoginseng, read-out: Concentration in heart): 2110 ± 280 ng/g
- concentration at 3 h ([1]; heart, oral Panax notoginseng with Borneol, read-out: Concentration in heart): 2240 ± 540 ng/g
- concentration at 3 h ([1]; heart, oral Panax notoginseng, read-out: Concentration in heart): 1140 ± 130 ng/g
- concentration at 1 h ([1]; heart, 1.0 h, oral Panax notoginseng with Borneol, read-out: Concentration in heart): 3280 ± 430 ng/g
- Kp at 1 h ([1]; kidney, at 1.0 h, read-out: level in kidney, fold higher than the plasma concentrations): 1
- concentration at 0.5 h ([1]; kidney, 3 mL·kg^−1, 0.5 h, oral Panax notoginseng with Borneol, read-out: Concentration in kidney): 2840 ± 530 ng/g
- concentration at 0.5 h ([1]; kidney, 3 mL·kg^−1, 0.5 h, oral Panax notoginseng, read-out: Concentration in kidney): 1630 ± 180 ng/g
- concentration at 1 h ([1]; kidney, 3 mL·kg^−1, 1.0 h, oral Panax notoginseng, read-out: Concentration in kidney): 1530 ± 220 ng/g
- concentration at 3 h ([1]; kidney, oral Panax notoginseng with Borneol, read-out: Concentration in kidney): 1610 ± 450 ng/g
- concentration at 3 h ([1]; kidney, oral Panax notoginseng, read-out: Concentration in kidney): 1150 ± 130 ng/g
- concentration at 1 h ([1]; kidney, 1.0 h, oral Panax notoginseng with Borneol, read-out: Concentration in kidney): 2430 ± 290 ng/g
- Kp at 1 h ([1]; liver, peak levels at 1.0 h, read-out: level in liver, fold higher than the plasma concentrations): 1.97
- concentration at 0.5 h ([1]; liver, 3 mL·kg^−1, 0.5 h, oral Panax notoginseng with Borneol, read-out: Concentration in liver): 3600 ± 460 ng/g
- concentration at 0.5 h ([1]; liver, 3 mL·kg^−1, 0.5 h, oral Panax notoginseng, read-out: Concentration in liver): 990 ± 330 ng/g
- concentration at 1 h ([1]; liver, 3 mL·kg^−1, 1.0 h, oral Panax notoginseng, read-out: Concentration in liver): 1300 ± 250 ng/g
- concentration at 3 h ([1]; liver, oral Panax notoginseng with Borneol, read-out: Concentration in liver): 2630 ± 810 ng/g
- concentration at 3 h ([1]; liver, oral Panax notoginseng, read-out: Concentration in liver): 690 ± 110 ng/g
- concentration at 1 h ([1]; liver, 1.0 h, oral Panax notoginseng with Borneol, read-out: Concentration in liver): 4770 ± 420 ng/g
- Kp at 1 h ([1]; lung, peak levels at 1.0 h, read-out: level in lung, fold higher than the plasma concentrations): 1.24
- concentration at 0.5 h ([1]; lung, 3 mL·kg^−1, 0.5 h, oral Panax notoginseng with Borneol, read-out: Concentration in lung): 2480 ± 690 ng/g
- concentration at 0.5 h ([1]; lung, 3 mL·kg^−1, 0.5 h, oral Panax notoginseng, read-out: Concentration in lung): 700 ± 410 ng/g
- concentration at 1 h ([1]; lung, 3 mL·kg^−1, 1.0 h, oral Panax notoginseng, read-out: Concentration in lung): 920 ± 130 ng/g
- concentration at 3 h ([1]; lung, oral Panax notoginseng with Borneol, read-out: Concentration in lung): 1530 ± 450 ng/g
- concentration at 3 h ([1]; lung, oral Panax notoginseng, read-out: Concentration in lung): 310 ± 440 ng/g
- concentration at 1 h ([1]; lung, 1.0 h, oral Panax notoginseng with Borneol, read-out: Concentration in lung): 2990 ± 170 ng/g
- concentration at 0.5 h ([1]; plasma, 3 mL·kg^−1, 0.5 h, oral Panax notoginseng, read-out: Concentration in plasma): 1780 ± 110 ng/mL
- concentration at 1 h ([1]; plasma, 3 mL·kg^−1, 1.0 h, oral Panax notoginseng, read-out: Concentration in plasma): 1900 ± 150 ng/mL
- concentration at 3 h ([1]; plasma, oral Panax notoginseng with Borneol, read-out: Concentration in plasma): 870 ± 40 ng/mL
- concentration at 3 h ([1]; plasma, oral Panax notoginseng, read-out: Concentration in plasma): 790 ± 20 ng/mL
- concentration at 0.5 h ([1]; plasma, 0.5 h, oral Panax notoginseng with Borneol, read-out: Concentration in plasma): 2680 ± 130 ng/mL
- concentration at 1 h ([1]; plasma, 1.0 h, oral Panax notoginseng with Borneol, read-out: Concentration in plasma): 2420 ± 80 ng/mL
- Cmax [2, 3]: 1920 ± 220 ng/mL
- Tmax [2, 3]: 45 min
- Cmax [2, 4]: 3040 ± 240 ng/mL
- Tmax [2, 4]: 45 min
- CL/F [2, 4]: 143 ± 54 mL/min/kg
- half-life [2, 4]: 69.3 ± 15.2 min
- CL/F [2, 3]: 150 ± 30 mL/min/kg
- half-life [2, 3]: 69.3 ± 5.8 min
- AUC(0-inf) [2, 3]: 8910 ng·h/mL
- AUC(0-t) [2, 3]: 7080 ng·h/mL
- AUC(0-inf) [2, 4]: 23300 ng·h/mL
- AUC(0-t) [2, 4]: 8750 ng·h/mL
- K 10 [2, 3]: 0.007 ± 0.003 min⁻¹
- K 12 [2, 3]: 0.012 ± 0.004 min⁻¹
- K 21 [2, 3]: 0.011 ± 0.005 min⁻¹
- K a [2, 3]: 0.025 ± 0.004 min⁻¹
- T lag [2, 3]: 0 ± 0 min
- V/F [2, 3]: 20.0 ± 4.7 L/kg
- t 1/2Ka [2, 3]: 27.7 ± 3.7 min
- t 1/2α [2, 3]: 35.0 ± 1.9 min
- α [2, 3]: 0.020 ± 0.004 min⁻¹
- β [2, 3]: 0.010 ± 0.002 min⁻¹
- K 10 [2, 4]: 0.005 ± 0.001 min⁻¹
- K 12 [2, 4]: 0.022 ± 0.005** min^−1
- K 21 [2, 4]: 0.011 ± 0.003 min⁻¹
- K a [2, 4]: 0.034 ± 0.003** min^−1
- T lag [2, 4]: 0.61 ± 0.47 min
- V/F [2, 4]: 31.1 ± 6.9 L/kg
- t 1/2Ka [2, 4]: 20.3 ± 4.2 min
- t 1/2α [2, 4]: 25.2 ± 2.4 min
- α [2, 4]: 0.027 ± 0.008 min⁻¹
- β [2, 4]: 0.010 ± 0.001 min⁻¹

Source: PMC3626250, “Effects of Borneol on Pharmacokinetics and Tissue Distribution of Notoginsenoside R1 and Ginsenosides Rg1 and Re in Panax notoginseng in Rabbits” (Journal of Analytical Methods in Chemistry, 2013)
